# Results reported in US20220402935A1, “HETEROCYCLIC COMPOUND” (FIMECS, INC., priority 2019, published 2022).
# Target: T1, IRAK-M (Homo sapiens, UniProt Q9Y616)
# T1 sequence (Q9Y616 1-596): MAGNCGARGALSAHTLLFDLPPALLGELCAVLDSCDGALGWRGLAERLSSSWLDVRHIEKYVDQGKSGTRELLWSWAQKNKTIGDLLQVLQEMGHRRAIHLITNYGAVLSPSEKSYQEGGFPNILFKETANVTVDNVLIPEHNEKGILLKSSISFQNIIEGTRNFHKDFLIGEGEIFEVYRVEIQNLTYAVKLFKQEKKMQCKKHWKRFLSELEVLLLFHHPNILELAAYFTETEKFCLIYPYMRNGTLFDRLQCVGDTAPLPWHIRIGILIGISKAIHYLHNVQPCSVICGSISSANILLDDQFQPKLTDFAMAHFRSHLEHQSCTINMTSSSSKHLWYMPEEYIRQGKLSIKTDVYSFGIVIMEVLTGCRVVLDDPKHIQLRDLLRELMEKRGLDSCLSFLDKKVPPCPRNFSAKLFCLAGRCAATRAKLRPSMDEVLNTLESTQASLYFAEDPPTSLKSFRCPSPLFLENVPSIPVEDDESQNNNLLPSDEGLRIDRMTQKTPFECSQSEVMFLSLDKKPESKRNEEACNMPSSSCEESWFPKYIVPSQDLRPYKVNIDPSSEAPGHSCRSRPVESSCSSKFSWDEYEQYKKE
# Test: IRAK-M binding inhibitory activity (KINOMEscan active site-dependent competitive assay)
# Design: purchased Eurofins Discover X
# Details: concentration of the test compound 1 μM; first symbol of cell; read-out: IRAK-M binding inhibition activity % Ctrl
# Protocol: IRAK-M binding inhibitory activity was evaluated using active site-dependent competitive assay KINOMEscan® provided by Eurofins Discover X (Goldstein, D. M. et al. High-throughput kinase profiling as a platform for drug discovery. Nat. Rev. Drug Discovery. 7, 391-397 (2008)). IRAK-M binding inhibitory activity of the test compound was evaluated. […] The “% Ctrl” is calculated by the following formula.
# (test compound signal−positive control compound signal)/(negative control compound signal−positive control compound signal)×100
# Negative control compound=DMSO (100 Ctrl)
# Positive control compound=control compound (0%×Ctrl)
row,remaining binding at 1 µM,Structure (SMILES)
1,< 25%,"C=CCOc1cc(C(C)N2CCC(Oc3ccnc4cc(C)sc34)CC2)on1 (racemic) [Ref. example 7, 3-(allyloxy)-5-(1-(4-((2-methylthieno[3,2-b]pyridin-7-yl)oxy)piperidin-1-yl)ethyl)isoxazole (racemate)]"
2,50 to 75%,"Cc1ncsc1-c1ccc(CNC(=O)[C@@H]2C[C@@H](O)CN2C(=O)[C@H](C(C)C)N2Cc3ccccc3C2=O)c(OCCOCCOCCOc2cc(CN3CCC(Oc4ccnc5ccsc45)CC3)on2)c1 [Example 62, (2S,4R)-4-hydroxy-1-((S)-3-methyl-2-(1-oxoisoindolin-2-yl)butanoyl)-N-(4-(4-methylthiazol-5-yl)-2-(2-(2-(2-((5-((4-(thieno[3,2-b]pyridin-7-yloxy)piperidin-1-yl)methyl)isoxazol-3-yl)oxy)ethoxy)ethoxy)ethoxy)benzyl)pyrrolidine-2-carboxamide]"
3,< 25%,"Cc1ncsc1-c1ccc(CNC(=O)[C@@H]2C[C@@H](O)CN2C(=O)[C@H](C(C)C)N2Cc3ccccc3C2=O)c(OCCOCCOc2cc(CN3CCC(Oc4ccnc5ccsc45)CC3)on2)c1 [Example 63, (2S,4R)-4-hydroxy-1-((S)-3-methyl-2-(1-oxoisoindolin-2-yl)butanoyl)-N-(4-(4-methylthiazol-5-yl)-2-(2-(2-((5-((4-(thieno[3,2-b]pyridin-7-yloxy)piperidin-1-yl)methyl)isoxazol-3-yl)oxy)ethoxy)ethoxy)benzyl)pyrrolidine-2-carboxamide]"
4,≥ 75%,"Cc1ncsc1-c1ccc(CNC(=O)[C@@H]2C[C@@H](O)CN2C(=O)[C@H](C(C)C)N2Cc3ccccc3C2=O)c(OCCOCCOCCOCCOc2cc(CN3CCC(Oc4ccnc5ccsc45)CC3)on2)c1 [Example 64, (2S,4R)-4-hydroxy-1-((S)-3-methyl-2-(1-oxoisoindolin-2-yl)butanoyl)-N-(4-(4-methylthiazol-5-yl)-2-(2-(2-(2-(2-((5-((4-(thieno[3,2-b]pyridin-7-yloxy)piperidin-1-yl)methyl)isoxazol-3-yl)oxy)ethoxy)ethoxy)ethoxy)ethoxy)benzyl)pyrrolidine-2-carboxamide]"

# Same assay, conditions: second symbol of cell; read-out: IRAK-M binding inhibition IC50 value
row,Structure (SMILES),IC50
1,"C=CCOc1cc(C(C)N2CCC(Oc3ccnc4ccsc34)CC2)on1 (single isomer, unassigned) [Ref. example 5, 3-(allyloxy)-5-(1-(4-(thieno[3,2-b]pyridin-7-yloxy)piperidin-1-yl)ethyl)isoxazole (enantiomer)]",30 to 100 nM
2,"C=CCOc1cc(C(C)N2CCC(Oc3ccnc4ccsc34)CC2)on1 (single isomer, unassigned) [Ref. example 6, 3-(allyloxy)-5-(1-(4-(thieno[3,2-b]pyridin-7-yloxy)piperidin-1-yl)ethyl)isoxazole (enantiomer)]",100 to 300 nM
3,"O=C1CCC(N2C(=O)c3cccc(OCCOCCOc4cc(CN5CCC(Oc6ccnc7ccsc67)CC5)on4)c3C2=O)C(=O)N1 (stereo not drawn) [Example 66, 2-(2,6-dioxopiperidin-3-yl)-4-(2-(2-((5-((4-(thieno[3,2-b]pyridin-7-yloxy)piperidin-1-yl)methyl)isoxazol-3-yl)oxy)ethoxy)ethoxy)isoindoline-1,3-dione]",100 to 300 nM

# Results, then the compound that gave them:
row,IC50,Structure (SMILES)
1,300 to 1000 nM,"Cc1ncsc1-c1ccc(CNC(=O)[C@@H]2C[C@@H](O)CN2C(=O)[C@@H](NC(=O)COCCOCCOCCOc2cc(CN3CCC(Oc4ccnc5ccsc45)CC3)on2)C(C)(C)C)cc1 [Example 61, (2S,4R)-1-((S)-2-(tert-butyl)-4-oxo-14-((5-((4-(thieno[3,2-b]pyridin-7-yloxy)piperidin-1-yl)methyl)isoxazol-3-yl)oxy)-6,9,12-trioxa-3-azatetradecanoyl)-4-hydroxy-N-(4-(4-methylthiazol-5-yl)benzyl)pyrrolidine-2-carboxamide]"
2,300 to 1000 nM,"O=C1CCC(N2C(=O)c3cccc(OCCOCCOCCOc4cc(CN5CCC(Oc6ccnc7ccsc67)CC5)on4)c3C2=O)C(=O)N1 (stereo not drawn) [Example 65, 2-(2,6-dioxopiperidin-3-yl)-4-(2-(2-(2-((5-((4-(thieno[3,2-b]pyridin-7-yloxy)piperidin-1-yl)methyl)isoxazol-3-yl)oxy)ethoxy)ethoxy)ethoxy)isoindoline-1,3-dione]"
